Biological target: GPR120L receptor (Homo sapiens (Human), UniProt Q5NUL3)
Test: Beta (β) arrestin 2 Interaction Assay (BRET assay), β-galactosidase enzyme fragment complementation
Assay type: cell-based
Settings: CHO-K1 cells stably expressing the GPR120L receptor; β-arrestin recruitment; 2 hours incubation
Procedure: Beta (β) arrestin 2 Interaction Assay (BRET assay) was performed using CHO-K1 cells stably expressing the GPR120L receptor using β-galactosidase (Beta gal) enzyme fragment complementation assay. The measurement of GPR120 activation upon agonist activation was directly provided by β-arrestin recruitment. One day before the β-arrestin 2 assay, CHO-K1 cells were seeded and incubated overnight at 37° C. in a 5% CO2 humidified atmosphere. Cells were treated with the test compounds in the various concentrations ranging from 30 μM to 1 nM and incubated for 2 hours for GPCR (GPR120) activation. Extent of Arrestin recruitment was measured by adding detection reagents for Beta gal complementation assay and was further incubated for 1 hour. The chemi-luminescent signal was detected on Polar Star (BMG Labtech). The dose-response curve was analyzed using Sigma Plot/Graph Pad. The EC50 (concentration of the test compounds where 50% of compounds' maximal activity is observed) values were calculated from the dose-response curve.

Sequence of GPR120L receptor (Q5NUL3 other isoform, or with tags, fused parts or gaps): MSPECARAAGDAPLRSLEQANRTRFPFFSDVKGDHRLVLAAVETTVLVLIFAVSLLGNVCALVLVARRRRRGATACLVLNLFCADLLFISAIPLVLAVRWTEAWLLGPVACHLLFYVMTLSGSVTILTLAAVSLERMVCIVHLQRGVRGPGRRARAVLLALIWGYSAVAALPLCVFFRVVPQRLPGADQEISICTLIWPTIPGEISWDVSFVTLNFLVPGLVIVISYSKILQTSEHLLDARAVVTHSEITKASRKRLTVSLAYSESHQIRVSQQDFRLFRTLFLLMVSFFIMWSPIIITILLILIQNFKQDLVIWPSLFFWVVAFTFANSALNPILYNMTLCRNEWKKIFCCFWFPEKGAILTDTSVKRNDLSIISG

EC50 [nM]	SMILES
10 to 500	O=C(O)CCCc1ccc(OCc2cc(F)ccc2-c2cnc(C3CC3)nc2)cc1 [Example 31, 4-(4-((2-(2-Cyclopropylpyrimidin-5-yl)-5-fluorobenzyl)oxy)phenyl)butanoic acid]
10 to 500	O=C(O)CCCc1ccc(OCc2cc(F)ccc2-c2nc3c(s2)CCCC3)cc1 [Example 46, 4-(4-((5-Fluoro-2-(4,5,6,7-tetrahydrobenzo[d]thiazol-2-yl)benzyl)oxy)phenyl)butanoic acid]
10 to 500	O=C(O)CCCc1ccc(OCc2cc(F)ccc2-c2cc3c(s2)CCCC3)cc1 [Example 23, 4-(4-((5-Fluoro-2-(4,5,6,7-tetrahydrobenzo[b]thiophen-2-yl)benzyl)oxy)phenyl)butanoic acid]
500 to 5000	N#CC1(c2ccc(-c3ccncc3COc3ccc(CCCC(=O)O)cc3)cc2)CC1 [Example 19, 4-(4-((4-(4-(1-Cyanocyclopropyl)phenyl)pyridin-3-yl)methoxy)phenyl)butanoic acid]
5000 to 50000	CC1(C)CCC=C1c1ccc(-c2ccc(F)cc2COc2ccc(CCC(=O)O)cc2)cc1 [Example 15, 3-(4-((4′-(5,5-Dimethylcyclopent-1-en-1-yl)-4-fluoro-[1,1′-biphenyl]-2-yl)methoxy)phenyl)propanoic acid]
10 to 500	O=C(O)CCCc1ccc(OCc2cc(F)ccc2-c2ccc3c(c2)CCCC3)cc1 [Example 9, 4-(4-((5-Fluoro-2-(5,6,7,8-tetrahydronaphthalen-2-yl)benzyl)oxy)phenyl)butanoic acid]
10 to 500	O=C(O)CCCc1ccc(OCc2cc(F)ccc2-c2ccc3c(c2)CCC=C3)cc1 [Example 35, 4-(4-((2-(7,8-Dihydronaphthalen-2-yl)-5-fluorobenzyl)oxy)phenyl)butanoic acid]
500 to 5000	O=C(O)CCc1ccc(OCc2cc(F)ccc2-c2ccc3c(c2)CC3)cn1 [Example 20, 3-(5-((2-(Bicyclo[4.2.0]octa-1(6),2,4-trien-3-yl)-5-fluorobenzyl)oxy)pyridin-2-yl)propanoic acid]
10 to 500	O=C(O)CCCc1ccc(OCc2cc(F)ccc2-c2ccc(C3CC3)nc2)cc1 [Example 30, 4-(4-((2-(6-Cyclopropylpyridin-3-yl)-5-fluorobenzyl)oxy)phenyl)butanoic acid]
10 to 500	Cc1cc(-c2ccc(F)cc2COc2ccc(CCCC(=O)O)cc2)ccc1C1CC1 [Example 29, 4-(4-((4′-cyclopropyl-4-fluoro-3′-methyl-[1,1′-biphenyl]-2-yl)methoxy)phenyl)butanoic acid]
10 to 500	O=C(O)CCCc1ccc(OCc2ccccc2-c2ccc3c(c2)CCCC3)cc1 [Example 27, 4-(4-((2-(5,6,7,8-tetrahydronaphthalen-2-yl)benzyl)oxy)phenyl)butanoic acid]
5000 to 50000	COC1(C)CCCc2cc(-c3ccc(F)cc3COc3ccc(CCCC(=O)O)cc3)ccc21 (centres unmarked) [Example 39, 4-(4-((5-Fluoro-2-(5-methoxy-5-methyl-5,6,7,8-tetrahydronaphthalen-2-yl)benzyl)oxy)phenyl)butanoic acid]
10 to 500	O=C(O)CCCc1ccc(OCc2cc(F)ccc2-c2ccc(C3CCC3)s2)cc1 [Example 28, 4-(4-((2-(5-Cyclobutylthiophen-2-yl)-5-fluorobenzyl)oxy)phenyl)butanoic acid]
10 to 500	O=C(O)CCCc1ccc(OCc2cc(F)ccc2-c2cnc3c(c2)CCC3)cc1 [Example 24, 4-(4-((2-(6,7-Dihydro-5H-cyclopenta[b]pyridin-3-yl)-5-fluorobenzyl)oxy)phenyl)butanoic acid]
5000 to 50000	COC1CCCc2cc(-c3ccc(F)cc3COc3ccc(CCCC(=O)O)cc3)ccc21 (centres unmarked) [Example 38, 4-(4-((5-Fluoro-2-(5-methoxy-5,6,7,8-tetrahydronaphthalen-2-yl)benzyl)oxy)phenyl)butanoic acid]
10 to 500	O=C(O)CCCc1ccc(OCc2cc(F)ccc2-c2nc3c(s2)COCC3)cc1 [Example 49, 4-(4-((2-(6,7-Dihydro-4H-pyrano[4,3-d]thiazol-2-yl)-5-fluorobenzyl)oxy)phenyl)butanoic acid]
10 to 500	O=C(O)CCCc1ccc(OCc2cc(F)ccc2-c2ccc3c(c2)CCO3)cc1 [Example 22, 4-(4-((2-(2,3-Dihydrobenzofuran-5-yl)-5-fluorobenzyl)oxy)phenyl)butanoic acid]
500 to 5000	O=C(O)CCc1ccc(OCc2cc(F)ccc2-c2ccc(C3(O)CCC3)cc2)cc1 [Example 14, 3-(4-((4-Fluoro-4′-(1-hydroxycyclobutyl)-[1,1′-biphenyl]-2-yl)methoxy)phenyl)propanoic acid]
5000 to 50000	O=C(O)CCc1ccc(OCc2cc(F)ccc2-c2ccc(C3COC3)cc2)cc1 [Example 13, 3-(4-((4-Fluoro-4′-(oxetan-3-yl)-[1,1′-biphenyl]-2-yl)methoxy)phenyl)propanoic acid]

EC50 [nM]	SMILES
10 to 500	O=C(O)CCCc1ccc(OCc2cc(F)ccc2-c2nnc(C3CC3)s2)cc1 [Example 44, 4-(4-((2-(5-Cyclopropyl-1,3,4-thiadiazol-2-yl)-5-fluorobenzyl)oxy)phenyl)butanoic acid]
10 to 500	N#CC1(c2ccc(-c3ccc(F)cc3COc3ccc(CCCC(=O)O)cc3)s2)CC1 [Example 1, 4-(4-((2-(5-(1-Cyanocyclopropyl)thiophen-2-yl)-5-fluorobenzyl)oxy)phenyl)butanoic acid]
10 to 500	CC1(c2ccc(-c3ccc(F)cc3COc3ccc(CCCC(=O)O)cc3)cc2)CC1 [Example 3, 4-(4-((4-Fluoro-4′-(1-methylcyclopropyl)-[1,1′-biphenyl]-2-yl)methoxy)phenyl)butanoic acid]
10 to 500	O=C(O)CCCc1ccc(OCc2cc(F)ccc2-c2nc3c(s2)CCCCC3)cc1 [Example 41, 4-(4-((5-Fluoro-2-(5,6,7,8-tetrahydro-4H-cyclohepta[d]thiazol-2-yl)benzyl)oxy)phenyl)butanoic acid]
5000 to 50000	O=C(O)CCCc1ccc(OCc2cc(F)ccc2-c2ccc(C3(F)CC3)s2)cc1 [Example 42, 4-(4-((5-Fluoro-2-(5-(1-fluorocyclopropyl)thiophen-2-yl)benzyl)oxy)phenyl)butanoic acid]
10 to 500	O=C(O)CCCc1ccc(OCc2ccccc2-c2ccc3c(c2)CC3)cc1 [Example 26, 4-(4-((2-(Bicyclo[4.2.0]octa-1(6),2,4-trien-3-yl)benzyl)oxy)phenyl)butanoic acid]
500 to 5000	O=C(O)CCCc1ccc(OCc2cc(F)ccc2-c2ccc3c(c2)CCCC3=O)cc1 [Example 34, 4-(4-((5-Fluoro-2-(5-oxo-5,6,7,8-tetrahydronaphthalen-2-yl)benzyl)oxy)phenyl)butanoic acid]
10 to 500	O=C(O)CCCc1ccc(OCc2cc(F)ccc2-c2ccc(C3CC3)cc2)cc1 [Example 7, 4-(4-((4′-Cyclopropyl-4-fluoro-[1,1′-biphenyl]-2-yl)methoxy)phenyl)butanoic acid]
5000 to 50000	N#CC1(c2ccc(-c3ncccc3COc3ccc(CCC(=O)O)cc3)cc2)CC1 [Example 21, 3-(4-((2-(4-(1-Cyanocyclopropyl)phenyl)pyridin-3-yl)methoxy)phenyl)propanoic acid]
5000 to 50000	O=C(O)CCCc1ccc(OCc2cc(F)ccc2-c2scnc2C2CC2)cc1 [Example 32, 4-(4-((2-(4-Cyclopropylthiazol-5-yl)-5-fluorobenzyl)oxy)phenyl)butanoic acid]
500 to 5000	O=C(O)CCCc1ccc(OCc2cc(F)ccc2-c2nc3c(s2)COCC3)cc1 [Example 48, 4-(4-((2-(6,7-Dihydro-4H-pyrano[4,3-d]thiazol-2-yl)-5-fluorobenzyl)oxy)phenyl)butanoic acid]
10 to 500	C=C1CCCc2cc(-c3ccc(F)cc3COc3ccc(CCCC(=O)O)cc3)ccc21 [Example 36, 4-(4-((5-Fluoro-2-(5-methylene-5,6,7,8-tetrahydronaphthalen-2-yl)benzyl)oxy)phenyl)butanoic acid]
5000 to 50000	O=C(O)CCc1ccc(OCc2cc(F)ccc2-c2ccc(C3COC3)nc2)cc1 [Example 17, 3-(4-((5-Fluoro-2-(6-(oxetan-3-yl)pyridin-3-yl)benzyl)oxy)phenyl)propanoic acid]
10 to 500	O=C(O)CCCc1ccc(OCc2cc(F)ccc2-c2nc3c(s2)CCC3)cc1 [Example 47, 4-(4-((2-(5,6-dihydro-4H-cyclopenta[d]thiazol-2-yl)-5-fluorobenzyl)oxy)phenyl)butanoic acid]
500 to 5000	C=C1CCCc2nc(-c3ccc(F)cc3COc3ccc(CCCC(=O)O)cc3)sc21 [Example 25, 4-(4-((5-Fluoro-2-(7-methylene-4,5,6,7-tetrahydrobenzo[d]thiazol-2-yl)benzyl)oxy)phenyl)butanoic acid]
500 to 5000	O=C(O)CCCc1ccc(OCc2cc(F)ccc2-c2ccc(C3(O)CCC3)s2)cc1 [Example 12, 4-(4-((5-Fluoro-2-(5-(1-hydroxycyclobutyl)thiophen-2-yl)benzyl)oxy)phenyl)butanoic acid]
10 to 500	N#CC1(c2ccc(-c3ccc(F)cc3COc3ccc(CCCC(=O)O)cc3)cc2)CC1 [Example 4, 4-(4-((4′-(1-Cyanocyclopropyl)-4-fluoro-[1,1′-biphenyl]-2-yl)methoxy)phenyl)butanoic acid]
10 to 500	O=C(O)CCCc1ccc(OCc2cc(F)ccc2-c2ccc(C3CC3(F)F)cc2)cc1 (centres unmarked) [Example 43, 4-(4-((4′-(2,2-Difluorocyclopropyl)-4-fluoro-[1,1′-biphenyl]-2-yl)methoxy)phenyl)butanoic acid]

SMILES	EC50 [nM]
CC1=CCCc2cc(-c3ccc(F)cc3COc3ccc(CCCC(=O)O)cc3)ccc21 [Example 37]	500 to 5000

Source: patent US10227360B2, “Compounds for use as GPR120 agonists” (PIRAMAL ENTERPRISES LIMITED, priority 2014, dated 2019)
